According to patent US7282599B2, “Dithiocarbamate antiviral agents and methods of using same” (Avir Green Hills Biotechnology Research Devlopment Trade AG, priority 2001, dated 2007):

Columns and labels:
[1] = system: HRV serotypes 1A, 2, 14 and 16; experiment: Virus progeny titer (TCID50 test) in supernatants of HRV-infected HeLa cells; assay type: cell-based, human rhinovirus; details: 20 TCID50 per cell, PDTC 125 μm
Description: PDTC was added after infection of cells with various HRV serotypes to test the effectiveness during infections by HRV. HeLa cells were infected with HRV serotypes 1A, 2, 14 and 16 with 20 TCID50 (tissue culture infectious dose 50) per cell. PDTC was added at the same time to a concentration of 125 μm in the medium. Excess virus was removed 4 hours after infection, while PDTC was added to the fresh medium. 24 hours (FIG. 1, top) and 48 hours (FIG. 1, bottom) after the infection (p. I.), the supernatants were collected and the amount of virus progeny was determined by TCID50 tests. Treatment of cells with PDTC reduced the virus titer (vt) by 10^3 after 24 hours (FIG. 1, top).

A/Vienna/47/96 = experiment: microbe, parasite or virus in culture; assay type: cell-based, influenza A virus; details: 4 days
BHK-21 cells = details: PDTC 0.975 to 1000 μM, 4 days at 37° C.
HeLa cells = experiment: Cell proliferation assay on uninfected HeLa cells (toxicity control)
[2] = system: influenza A/PR8/34 and influenza A/Vienna/47/96; experiment: microbe, parasite or virus in culture; assay type: cell-based, influenza A virus
eIF4GI = experiment: Western blot of eIF4GI splitting by viral 2A protease in HRV2-infected HeLa cells; assay type: cell-based, human rhinovirus; details: HRV2 100 TCID50 per cell
Description: Various proteolytic activities were determined to examine the course of a rhinoviral infection in the presence and absence of PDTC. Enzymatic splitting of the cellular translation initiation factors 4GI (eIF4GI) and 4GII by viral 2A protease, ending host cell protein synthesis, is one characteristic proteolytic activity that occurs in the course of infection with rhinoviruses and enteroviruses. Depending on the HRV serotype, eIF4G proteins are split in an early stage of infection. Another splitting activity during a rhinoviral infection, only recently described, is splitting of the intermediary filament protein cytokeratin 8. This splitting also depends on the 2A protease, but occurs at a later stage of the infection. In order to investigate the effect of a PDTC treatment on the course of a virus infection, a Western blot analysis was done to analyze these 2A protease substrates.
Medium was removed at the indicated times for the Western blot analysis. The cells were lysed by adding 100 μl of protein buffer (8% sodium dodecyl sulfate, 20% β-mercapto-ethanol, 20% glycerol, 0.04% bromphenol blue). 20 μl protein extract was separated by SDS-PAGE on each track, and blotted onto PVDF membranes. […] The molecular weights were determined by using a prestained SDS-7B marker (Sigma).
Splitting of eIF4GI can be detected 4 hours after infection in HeLa cells infected with HRV2 (100 TCID50 per cell). […]

HRV2 = experiment: Time of addition, viral titers in supernatants of HRV2-infected cells; assay type: cell-based, human rhinovirus
Description: Similar results were obtained if the viral titers (vt) were determined in the supernatants of infected and PDTC-treated cells (see FIG. 4B). Addition of PDTC up to four hours after infection reduced the titer of the HRV2 produced by 10^3.

FMV virus O-Manisa = experiment: microbe, parasite or virus in culture; assay type: cell-based, foot and mouth disease virus
influenza virus = experiment: Mice inoculated intranasally with lethal dose of influenza virus, intranasal treatment; assay type: in vivo, C57/BL6 mice; details: 25 μl 600 mM PDTC intranasally
Description: Ten C57/BL6 mice were inoculated intranasally with a lethal dose (50 μl 10^7 pfU). One hour later, they were treated intranasally with 25 μl 600 mM PDTC or with 25 μl PBS. The mice were examined and treated every 12 hours for the first 48 hours and then every 24 hours. The weights of the mice were determined and reported in % of the initial weight (% w) (FIG. 11A). […] All the mice treated with PBS (diamonds) died within 12 days after the infection (% s=% surviving).

[3] = system: HRC serotypes 1A, 2, 14 and 16; experiment: Time of addition, proliferation assay of HRV-infected cells; assay type: cell-based, human rhinovirus; details: PDTC 125 μM, 20 TCID50 per cell
Description: To determine the stage of the viral life cycle attacked by PDTC, PDTC was added at various times following virus infection with 20 TCID50 per cell, and proliferation assays were done. […] This effect is also not specific for a single serotype, as HRC serotypes 1A, 2, 14 and 16 were used. Only PDTC treatment (125 μM) of the cells more than 8 hours after infection reduced the protective effect.

[4] = system: equine rhinitis A virus (ERAV); assay type: cell-based; details: vero cells, 10 TCID50 ERAV per cell, PDTC 1 mM-50 μM, 24 hours after infection
Description: The reduction of ERAV viral propagation by addition of PDTC was investigated as follows: vero cells were infected with 10 TCID50 ERAV per cell. At the same time, PDTC was added at different concentrations (1 mM-50 μM). The inoculum was removed 4 hours after infection, and fresh medium with PDTC was added. The supernatants were removed 24 hours after the infection, and the viral titers were determined in a standard plate assay.

EMC virus = experiment: Mice infected intraperitoneally with EMC virus, intraperitoneal treatment; assay type: in vivo, C57B16 mice; details: 50 μl of 50 mM PDTC per day i.p.
Description: C57B16 mice were infected intraperitoneally with 10 TCID50 of EMC virus. Then, the control group was treated intraperitoneally once daily with PBS. Two other groups were treated with 50 μl of 50 mM PDTC per day. Treatment of one group (PDTC) was started simultaneously with the infection, while treatment of the other group (PDTC 24 hpi) was started only 24 hours after the infection.

S=C(S)N1CCCC1 [PDTC, pyrrolidine dithiocarbamate]
reduction of the virus titer (vt) ([1]; supernatants 24 hours after infection): 10^3 | virus titer in supernatants ([1]; supernatants 48 hours after infection): significant reduction of the virus titer | inhibition at 1200 µM (A/Vienna/47/96; Influenza A virus, 96 h, PDTC 1200 μM, read-out: inhibition (TCID50 assay)): > 99.9% | reduction of TCID50 (A/Vienna/47/96; PDTC 300 μM): 82.2% | toxic effects on cell monolayer (microscopic examination) (BHK-21 cells): no indications of toxic effects | toxicity of the concentration used to inhibit the viral infections (HeLa cells; HeLa cells): exhibits no toxicity | effects on uninfected cells (viability) (HeLa cells; compound alone, uninfected HeLa cells): only minor effects on uninfected cells | EC50 ([2]; Influenza A virus, PR8, Vero, 96 h, read-out: PDTC concentration for 50% reduction of positive wells): 50 to 100 µM | PDTC concentration for complete inhibition of cytopathic effects ([2]; all viruses, vero cells): 600 µM | splitting of eIF4GI (eIF4GI; 4 and 8 hours after infection): No splitting of eIF4GI can be detected | splitting of eIF4GI (eIF4GI; about 24 hours after infection): slight eIF4GI splitting can be detected | viral titers produced (HRV2; PDTC treatment started only 6 hours after infection): significantly reduced | reduction of the titer of the HRV2 produced (HRV2; addition of PDTC up to four hours after infection): 10^3 | protection against the cytopathic effect of the virus (FMV virus O-Manisa; 600 μM PDTC, IB-RS-2 cells, 0.1 TCID50 per cell, 24 hours): 100% | EC50 (FMV virus O-Manisa; Foot-and-mouth disease virus, 24 h, read-out: concentration range for 50% reduction of infected wells): 75 to 150 µM | weight of infected mice (influenza virus; 7 days after the infection): gained weight | survival of infected mice (influenza virus; from one hour after lethal inoculation): all the mice treated with PDTC (squares) survived the virus infection | time of PDTC treatment after infection at which the protective effect was reduced [3]: more than 8 hours | time of addition offering the best protection against virus induced loss of proliferation [3]: within the first six hours after infection | virus titer (vt) in the supernatant in comparison to untreated cells [4]: decreases | changes of the mouse weights after the beginning of the infection (EMC virus; started with infection or 24 hours after): no difference in treated and untreated mice | average time to death for the infected mice (EMC virus; every group: PBS, PDTC, PDTC 24 hpi): 5.5 days
